This is an account of results in US12102594B2, “Infusion bag of Midazolam for intravenous use” (Sun Pharmaceutical Industries Limited, priority 2019, dated 2024).

The conditions of data set [1]: cited from earlier work.
Data set [2] is described as follows: Adsorption behaviour of Midazolam in different bags at variable fill volume (HPLC assay). The format is physicochemical. The following applies: 1 mg/mL, fill volumes 10, 20, 30, 40 ml. As to the method:
Method: Adsorption behaviour of Midazolam in different bags (IC-S′, IC-S and IC-PHC) was evaluated at four variable fill volumes, i.e. 10 ml, 20 ml, 30 ml and 40 ml. The assay values of autoclaved samples of Midazolam formulation were evaluated using an HPLC based assay method. […] At lowest fill volume, surface area to volume ratio was high resulting higher adsorption of API on contact layer of infusion bags. As fill volume increases surface area to volume ratio decreases leads to lower adsorption and higher assay values. This confirmed the physical adsorption of Midazolam in IC-S infusion bags. […] This also ruled out the possibility of Midazolam adsorption in IC-PHC infusion bags.

The nature of data set [3]: Packaging material screening: Assay of Midazolam HCL Injection in autoclaved and unautoclaved infusion containers. The format is physicochemical. On the procedure:
Manufacturing process: Bulk solution preparation: 80% of the batch size of water for injection (WFI) was collected at a temperature of 20° C. to 25° C. in stainless steel 316L manufacturing tank of suitable capacity. Nitrogen gas was purged to get dissolve oxygen content less than 1 mg/L (ppm), pressure of nitrogen gas and time of purging or flow rate of nitrogen gas were recorded. Sodium chloride was added and dissolved gradually followed by stirring for not less than 10 minutes to ensure complete solubilization and clarity of solution visually. While additional excipients were added as below, the purging was stopped. 1 w/w hydrochloric acid (35 mL/Kg) was added and stirred well for approximately 10 minutes. […] The pH was adjusted to 3.0±0.1 using sufficient quantity of 1 w/w hydrochloric acid and stirred for around 1 h after pH adjustment to ensure complete dissolution of drug, stabilization of pH and until the appearance of the solution was a clear colourless solution. The pH was adjusted at 3.4±0.2 using sufficient quantity of 1 w/w Sodium hydroxide solution, and the volume was made up with dissolved oxygen maintained WFI stored at 20° C. to 25° C. […]

A short description of data set [4]: Terminal sterilization in different packaging material: Midazolam potency by HPLC based assay. Type of data set: physicochemical. On the procedure: Method: Midazolam formulation samples (i) autoclaved and (ii) unautoclaved, were stored in different packaging materials, i.e. glass bottle, IC-H-AE-1, IC-S, IC-S′ and IC-PHC. Initial potency of Midazolam in such samples was tested using an HPLC based assay method.

Data set [5] is described as follows: Potency loss at lower concentration 0.2 and 0.5 mg/mL in different infusion bags (HPLC assay). Type of data set: physicochemical. As to the method:
Method: Loss of potency of Midazolam was assessed using an HPLC based assay method for (i) autoclaved and (ii) unautoclaved formulations (0.2 mg/ml and 0.5 mg/ml) in glass bottle, IC-S infusion bag, IC-S′ infusion bag and IC-PHC infusion bag.

Take `Cc1ncc2n1-c1ccc(Cl)cc1C(c1ccccc1F)=NC2` [Midazolam]: the period of stability result in data set [1] (1 mg/ml in 0.9% sodium chloride, polyvinyl chloride bags, fluorescent light, room temperature (McMullin et al.)) is listed as “about 10 days”. The “impact of fill volume on potency” value in data set [2] (IC-PHC infusion bags) is “no impact of fill volume on potency”. The “assay of autoclaved sample vs fill volume” value in data set [2] (IC-S infusion bags) is given as “increasing trend with increasing fill volume”. Also, in data set [3] (cyclo-olefin polymer or co-polymer as innermost layer of the infusion container), the “loss in assay or content upon autoclaving and long term storage” value is listed as “substantially no loss in assay”. In addition, the “loss of assay percentage immediately after autoclaving” value in data set [3] (infusion bags with inner layer of low density polyethylene, polypropylene, polyolefin copolymer or ethylene propylene copolymer) is “significant loss of assay percentage”. Besides, in data set [4] (IC-H-AE-1 infusion bags), the Midazolam potency loss entry was “Potency loss was also not observed”. The “Midazolam potency, autoclaved vs un-autoclaved” value in data set [4] (IC-PHC infusion bags) is “no significant change”. In addition, the “Midazolam potency after autoclaving” value in data set [4] (IC-S and IC-S′ infusion bags) is listed as “found to decrease after autoclaving”. Besides, the potency loss result was “no potency loss” in data set [5] (IC-PHC infusion bags, 0.2 and 0.5 mg/mL); “no potency loss” in data set [5] (IC-PHC infusion containers, 0.2 mg/mL); “no potency loss” in data set [5] (IC-PHC infusion containers, 0.5 mg/mL); “significant potency loss” in data set [5] (IC-S and IC-S′ infusion bags, 0.2 and 0.5 mg/mL).
As to `Cc1ncc2n1-c1ccc(Cl)cc1C(c1ccccc1F)=NC2.Cl` [Midazolam hydrochloride, 8-chloro-6-(2-fluorophenyl)-1-methyl-4H-imidazo[1,5-a][1,4] benzodiazepine hydrochloride], the “period over which diluted preparation was stable” value in data set [1] (0.5 mg/ml, diluted with 5% dextrose solution and 0.9% sodium chloride, polyolefin bags, dark, room temperature (Hagan et al.)) was 30 days. Further, the “period over which diluted solution remained stable” value in data set [1] (1 mg/ml diluted with 5% dextrose, polyvinyl chloride and polyolefin bags, regardless of storage conditions (Karlage et al.)) is recorded as “about 27 days”.
